# Experimental data taken from PubChem BioAssay (NCI).
#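 Protocol summary: plate cells (96-well), add compound at 5 concentrations, incubate 48 h, interpolate endpoints linearly. GI50 = concentration required for 50% inhibition of growth. TGI: concentration producing complete growth inhibition.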
# Assays:
# Experiment in all cases: growth of human tumour cells (NCI), 48 h
# RPMI-8226 leukemia = test system: RPMI-8226 leukemia
# OVCAR-5 ovarian = test system: OVCAR-5 ovarian
# SW-620 colon = test system: SW-620 colon
# HCT-116 colon = test system: HCT-116 colon
# A498 renal = test system: A498 renal
# 786-0 renal = test system: 786-0 renal
# SF-295 CNS = test system: SF-295 CNS
# SNB-19 CNS = test system: SNB-19 CNS
# A549 NSCLC = test system: A549 NSCLC
# UO-31 renal = test system: UO-31 renal
# MDA-MB-231 breast = test system: MDA-MB-231 breast
# HCT-15 colon = test system: HCT-15 colon
# BT-549 breast = test system: BT-549 breast
# LOX IMVI melanoma = test system: LOX IMVI melanoma
# HL-60(TB) leukemia = test system: HL-60(TB) leukemia
# ACHN renal = test system: ACHN renal
# NCI/ADR-RES ovarian = test system: NCI/ADR-RES ovarian
# SF-268 CNS = test system: SF-268 CNS
# SN12C renal = test system: SN12C renal
# OVCAR-8 ovarian = test system: OVCAR-8 ovarian
# NCI-H226 lung = test system: NCI-H226 lung
# SK-MEL-2 melanoma = test system: SK-MEL-2 melanoma
# T-47D breast = test system: T-47D breast
# NCI-H522 lung = test system: NCI-H522 lung
# UACC-257 melanoma = test system: UACC-257 melanoma
# MCF7 breast = test system: MCF7 breast
# SF-539 CNS = test system: SF-539 CNS
# DU-145 prostate = test system: DU-145 prostate
# NCI-H460 lung = test system: NCI-H460 lung
smiles,measurement,setting,value
Cc1cc2nc3cc(C)c(N)cc3[n+](-c3ccccc3)c2cc1N,GI50,RPMI-8226 leukemia,4.25 µM
same,TGI,RPMI-8226 leukemia,> 100 µM
same,GI50,OVCAR-5 ovarian,46.3 µM
same,TGI,OVCAR-5 ovarian,> 100 µM
same,GI50,SW-620 colon,5.62 µM
same,TGI,SW-620 colon,> 45.2 µM
same,GI50,HCT-116 colon,3.64 µM
same,TGI,HCT-116 colon,41.4 µM
same,GI50,A498 renal,54.8 µM
same,TGI,A498 renal,> 100 µM
same,GI50,786-0 renal,6.26 µM
same,TGI,786-0 renal,> 100 µM
same,GI50,SF-295 CNS,2.94 µM
same,TGI,SF-295 CNS,> 73.8 µM
same,GI50,SNB-19 CNS,2.06 µM
same,TGI,SNB-19 CNS,> 100 µM
same,GI50,A549 NSCLC,14.6 µM
same,TGI,A549 NSCLC,> 100 µM
same,GI50,UO-31 renal,> 100 µM
same,TGI,UO-31 renal,> 100 µM
same,GI50,MDA-MB-231 breast,20.5 µM
same,TGI,MDA-MB-231 breast,> 100 µM
same,GI50,HCT-15 colon,> 100 µM
same,TGI,HCT-15 colon,> 100 µM
same,GI50,BT-549 breast,2.64 µM
same,TGI,BT-549 breast,18.8 µM
same,GI50,LOX IMVI melanoma,4.78 µM
same,TGI,LOX IMVI melanoma,> 100 µM
same,GI50,HL-60(TB) leukemia,4.92 µM
same,TGI,HL-60(TB) leukemia,> 100 µM
same,GI50,ACHN renal,> 68.2 µM
same,TGI,ACHN renal,> 100 µM
same,GI50,NCI/ADR-RES ovarian,> 100 µM
same,TGI,NCI/ADR-RES ovarian,> 100 µM
same,GI50,SF-268 CNS,2.23 µM
same,TGI,SF-268 CNS,> 100 µM
same,GI50,SN12C renal,1.59 µM
same,TGI,SN12C renal,> 23 µM
same,GI50,OVCAR-8 ovarian,2.83 µM
same,TGI,OVCAR-8 ovarian,> 100 µM
same,GI50,NCI-H226 lung,6.23 µM
same,TGI,NCI-H226 lung,> 69.4 µM
same,GI50,SK-MEL-2 melanoma,6.74 µM
same,TGI,SK-MEL-2 melanoma,47.1 µM
same,GI50,T-47D breast,1.8 µM
same,TGI,T-47D breast,19.9 µM
same,GI50,NCI-H522 lung,3.73 µM
same,TGI,NCI-H522 lung,> 41 µM
same,GI50,UACC-257 melanoma,1.85 µM
same,TGI,UACC-257 melanoma,12 µM
same,GI50,MCF7 breast,2.48 µM
same,TGI,MCF7 breast,> 100 µM
same,GI50,SF-539 CNS,4.39 µM
same,TGI,SF-539 CNS,> 100 µM
same,GI50,DU-145 prostate,7.89 µM
same,TGI,DU-145 prostate,> 100 µM
same,GI50,NCI-H460 lung,3.57 µM
